Here are results for two compounds from article PMC11732441, “Biased constitutive signaling of the G protein-coupled receptor GPR35 suppresses gut barrier permeability [drawing 1]” (The Journal of Biological Chemistry, 2024).

Test [1] deals with T1, hGPR35a (Homo sapiens, UniProt Q9HC97).
T1 construct: gene GPR35; FLAG-hGPR35a (N-terminal FLAG tag); with Gα13/Gβ3/Gγ9
Description: BRET G protein re-association (inverse agonism) in HEK293 cells; effect in HEPG2 cells lost on GPR35 knock-out. The format is cell-based.

Test [2] has as its target T1, hGPR35a. Description: BRET G protein dissociation (TRUPATH-like) in Flp-In T-REx […] cells expressing FLAG-hGPR35a. The format is cell-based.

T1 sequence (Q9HC97 whole entry): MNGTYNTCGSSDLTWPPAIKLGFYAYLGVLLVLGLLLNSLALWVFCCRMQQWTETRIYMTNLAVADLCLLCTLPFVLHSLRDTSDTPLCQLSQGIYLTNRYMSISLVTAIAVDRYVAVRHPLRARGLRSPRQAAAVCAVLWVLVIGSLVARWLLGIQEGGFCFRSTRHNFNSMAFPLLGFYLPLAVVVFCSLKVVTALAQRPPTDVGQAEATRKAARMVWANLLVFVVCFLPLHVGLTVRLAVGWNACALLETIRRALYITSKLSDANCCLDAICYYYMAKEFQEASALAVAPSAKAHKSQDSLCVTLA
T1 sequence (Q14344 whole entry partner): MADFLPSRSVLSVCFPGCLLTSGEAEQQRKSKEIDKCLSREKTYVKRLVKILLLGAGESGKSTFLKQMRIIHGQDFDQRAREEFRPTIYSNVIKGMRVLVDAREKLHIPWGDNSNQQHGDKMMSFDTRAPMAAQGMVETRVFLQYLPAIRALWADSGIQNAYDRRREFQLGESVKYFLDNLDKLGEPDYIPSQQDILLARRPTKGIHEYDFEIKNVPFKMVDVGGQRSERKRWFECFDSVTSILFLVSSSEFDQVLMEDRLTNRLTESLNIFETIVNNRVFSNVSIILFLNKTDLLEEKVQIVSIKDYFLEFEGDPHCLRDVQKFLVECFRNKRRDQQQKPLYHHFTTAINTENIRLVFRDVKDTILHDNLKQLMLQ
T1 sequence (P16520 whole entry partner): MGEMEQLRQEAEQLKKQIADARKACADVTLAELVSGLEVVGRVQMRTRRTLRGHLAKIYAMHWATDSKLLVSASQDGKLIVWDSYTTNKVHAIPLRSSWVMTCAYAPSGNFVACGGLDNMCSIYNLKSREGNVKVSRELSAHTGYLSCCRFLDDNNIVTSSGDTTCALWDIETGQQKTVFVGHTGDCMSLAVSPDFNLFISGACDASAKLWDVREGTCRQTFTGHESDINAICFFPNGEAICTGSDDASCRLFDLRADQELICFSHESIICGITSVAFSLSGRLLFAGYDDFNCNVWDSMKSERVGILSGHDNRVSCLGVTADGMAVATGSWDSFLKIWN
T1 sequence (O14610 1-66 partner): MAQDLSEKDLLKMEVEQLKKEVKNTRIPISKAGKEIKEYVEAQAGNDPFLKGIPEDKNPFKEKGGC

As to `COC(=O)c1cnn(-c2ccc(F)cc2F)c1C=NNC(=S)NC(C)(C)C` [CID-2745687], the “BRET G protein re-association (inverse agonism) in HEK293 cells; effect in HEPG2” value on hGPR35a [1] is on record as “the BRET signal induced by CID-2745687 increased with receptor plasmid amount”.

`N#Cc1cc(NC(=O)C(=O)O)c(Cl)c(NC(=O)C(=O)O)c1` [lodoxamide]: on hGPR35a [2], the EC50 (usually the concentration at which the effect is half-maximal) is 1.48 nM.
